# Legend:
# Factor XIIIa = biological target: T1, Factor XIIIa (Homo sapiens, UniProt P00488); test: Factor XIIIa dependency of incorporation (dimethylcasein uptake, normal vs Factor XIII deficient plasma); format: biochemical; details: 1 KBq/ml, 60 minutes; uptake in normal plasma minus Factor XIII deficient plasma
# T1 construct: Factor XIII is transformed into its active form Factor XIIIa by thrombin in the presence of calcium ions; from tissue; host or cells: human plasma
# T1 sequence (P00488 39-732 limits assumed): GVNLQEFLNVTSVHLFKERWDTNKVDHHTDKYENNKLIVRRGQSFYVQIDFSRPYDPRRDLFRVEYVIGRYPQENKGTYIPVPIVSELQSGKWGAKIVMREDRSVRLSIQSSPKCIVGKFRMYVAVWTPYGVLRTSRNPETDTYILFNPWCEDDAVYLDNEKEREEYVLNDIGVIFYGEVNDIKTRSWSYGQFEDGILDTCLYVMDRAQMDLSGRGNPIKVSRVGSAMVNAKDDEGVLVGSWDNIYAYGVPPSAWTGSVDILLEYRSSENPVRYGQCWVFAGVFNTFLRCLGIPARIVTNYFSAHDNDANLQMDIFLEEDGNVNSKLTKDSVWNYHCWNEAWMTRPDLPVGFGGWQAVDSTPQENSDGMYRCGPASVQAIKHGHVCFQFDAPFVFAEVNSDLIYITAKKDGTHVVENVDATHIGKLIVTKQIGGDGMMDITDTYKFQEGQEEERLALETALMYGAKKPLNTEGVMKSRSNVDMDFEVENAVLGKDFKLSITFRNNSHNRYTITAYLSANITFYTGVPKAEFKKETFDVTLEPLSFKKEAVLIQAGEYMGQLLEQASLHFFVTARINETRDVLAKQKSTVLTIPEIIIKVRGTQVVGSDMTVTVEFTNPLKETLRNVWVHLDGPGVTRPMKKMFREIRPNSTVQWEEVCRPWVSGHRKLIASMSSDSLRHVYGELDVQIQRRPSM
# Method: The assay was changed by replacing the mercaptoethanol with aprotinin at a final concentration of 2 μg/ml, and dimethylcasein (DMC) was used instead of casein.
# human plasma clots [1] = test: Incorporation into human plasma clots (in vitro plasma clot assay); format: biochemical; details: control vials without thrombin and calcium chloride, 60 minutes
# Method: (§1) Incorporation of radiolabelled substrates into fibrin was investigated by induction of an in vitro human plasma clot in the following manner. To a siliconised 5 ml glass vial was added, (a) 800 μl of Tris(hydroxymethyl)aminomethane buffered saline pH 7.5 containing calcium chloride (50 mM Tris, 150 mM sodium chloride, 4 mM calcium chloride.), (b) 40 μl of physiological salt solution containing 100 units of thrombin per ml, (c) 400 μl of human plasma containing the radiolabelled substrate at a concentration of typically 10 kBq/ml. To aid induction of clot a roughened glass rod was added to the reaction vial. Control vials were prepared similarly but with the omission of thrombin and calcium chloride.
# (§2) The proportion of total radioactivity was calculated by counting in suitable detection apparatus.
# (§3) The fraction of radioactivity retained on the filter, after subtraction of the non-specific binding determined from the control, is a measure of incorporation into the filtered clots.
# human plasma clots [2] = biological target: T2, human plasma clots (Homo sapiens, UniProt P00488); test: as above; format: biochemical; details: for % specific uptake*: % retained with thrombin − % retained no thrombin; for % retained in plasma clot assay (with thrombin): human plasma with thrombin and calcium chloride, 60 minutes, ca. 20° C.
# T2 construct: Factor XIII is transformed into its active form Factor XIIIa by thrombin in the presence of calcium ions; from tissue; host or cells: human plasma, clotted in vitro with thrombin and calcium chloride
# T2 sequence (P00488 39-732): T1 sequence (P00488 39-732 limits assumed)
# Method: as §1, §2, §3
# [3] = Normal rat biodistribution; format: in vivo; details: i.v., male Wistar rats, Mean±SD n=3
# Method: The resolution of a clot image is dependant on the combination of rate of incorporation of the radiopharmaceutical and its blood/tissues clearance rate. For this reason the biodistribution of several compounds has been determined in rats. Male Wistar (100-150 g) rats were injected i.v. with 0.1-0.2 ml of radiolabelled tracer solution (8 MBq/ml) and dissected at different times post-injection. The % ID in each of the selected tissues was measured. Some animals were kept in metabolism cages to be able to determine the % ID excreted in urine and faeces. The dissection times used for the majority of the agents was 2, 15, 30, 60, 240 min. Data are shown as % ID, Mean±SD, (n=3).
# [4] = test system: clots induced in rat inferior vena cava; test: Incorporation into clots induced in a rat model (rat inferior vena cava model); format: in vivo; details: rat IVC model; for Clot/Blood / Clot/Heart / Clot/Liver / Clot/Lung: 60 min; for % ID/g (clot uptake) / Relative conc (cpm/g of clot by dose/g animal): compound injected 5 min post-induction, clot removed after 60 min
# Method: The rats (Male Wistar, 250-350 g) were anaesthetised with 15% urethane. After laparotomy, the vena cava was isolated and freed of surrounding fat tissue. […] The average weight of the clots formed in this model was around 27 mg, n=32, (5-50 mg range). The so compounds were injected 5 min post-induction. After 60 min the animals were sacrificed and the clot removed, weighed and counted. Other tissues e.g. blood, lung, heart, were also dissected and counted. The uptake of tracer into the clot was determined as the relative concentration (cpm/g of clot by dose/g animal ) and clot to background tissue.
compound,measurement,setting,value
"CC(=NO)C(C)(C)NCC(C)(CNC(=O)C1CCC(CNC(=O)c2ccc(S(=O)(=O)NCCCCCN)cc2)CC1)CNC(C)(C)C(C)=NO (stereo not shown) [Compound 8, 3,3,6,9,9-pentamethyl-6-N[4-N-{(4-N-(5-aminopentyl)amidosulphonyl)benzoyl}aminomethylcyclohexylcarbonyl]aminomethyl-4,8-diazaundecane-2,10-dione dioxime]",% specific DMC casein uptake,Factor XIIIa,45%
same,% retained in plasma clot assay (no thrombin),human plasma clots [1],4.6%
same,% specific uptake*,human plasma clots [2],18.4%
same,% retained in plasma clot assay (with thrombin),human plasma clots [2],23%
same,% ID Blood,[3]; 2 min post-injection,22.59 ± 1.44 % ID
same,% ID GI Tract,[3]; 2 min post-injection,9.75 ± 1.2 % ID
same,% ID Heart,[3]; 2 min post-injection,0.63 ± 0.17 % ID
same,% ID Kidney,[3]; 2 min post-injection,4.56 ± 0.29 % ID
same,% ID Liver,[3]; 2 min post-injection,19.6 ± 2.16 % ID
same,% ID Lung,[3]; 2 min post-injection,1.61 ± 0.06 % ID
same,% ID Muscle,[3]; 2 min post-injection,21.6 ± 2.08 % ID
same,% ID Urine,[3]; 2 min post-injection,0.13 ± 0.06 % ID
same,% ID Blood,[3]; 15 min post-injection,1.22 ± 0.06 % ID
same,% ID GI Tract,[3]; 15 min post-injection,70.9 ± 1.3 % ID
same,% ID Heart,[3]; 15 min post-injection,0.06 ± 0.04 % ID
same,% ID Kidney,[3]; 15 min post-injection,1.9 ± 0.95 % ID
same,% ID Liver,[3]; 15 min post-injection,10.0 ± 0.86 % ID
same,% ID Lung,[3]; 15 min post-injection,0.21 ± 0.03 % ID
same,% ID Muscle,[3]; 15 min post-injection,3.97 ± 0.56 % ID
same,% ID Urine,[3]; 15 min post-injection,6.23 ± 1.23 % ID
same,% ID Blood,[3]; 30 min post-injection,0.55 ± 0.19 % ID
same,% ID GI Tract,[3]; 30 min post-injection,80.7 ± 2.4 % ID
same,% ID Kidney,[3]; 30 min post-injection,1.8 ± 0.42 % ID
same,% ID Liver,[3]; 30 min post-injection,4.53 ± 0.5 % ID
same,% ID Lung,[3]; 30 min post-injection,0.1 ± 0.04 % ID
same,% ID Muscle,[3]; 30 min post-injection,1.6 ± 0.82 % ID
same,% ID Urine,[3]; 30 min post-injection,7.18 ± 1.24 % ID
same,% ID Blood,[3]; 60 min post-injection,0.39 ± 0.05 % ID
same,% ID GI Tract,[3]; 60 min post-injection,85.4 ± 0.12 % ID
same,% ID Heart,[3]; 60 min post-injection,0.03 ± 0.01 % ID
same,% ID Kidney,[3]; 60 min post-injection,1.06 ± 0.22 % ID
same,% ID Liver,[3]; 60 min post-injection,2.63 ± 0.38 % ID
same,% ID Lung,[3]; 60 min post-injection,0.08 ± 0.01 % ID
same,% ID Muscle,[3]; 60 min post-injection,1.22 ± 0.28 % ID
same,% ID Urine,[3]; 60 min post-injection,7.71 ± 0.49 % ID
same,% ID Blood,[3]; 240 min post-injection,0.1 ± 0.02 % ID
same,% ID GI Tract,[3]; 240 min post-injection,87.5 ± 2.8 % ID
same,% ID Heart,[3]; 240 min post-injection,0.01 ± 0.02 % ID
same,% ID Kidney,[3]; 240 min post-injection,0.85 ± 0.08 % ID
same,% ID Liver,[3]; 240 min post-injection,1.39 ± 0.29 % ID
same,% ID Lung,[3]; 240 min post-injection,0.05 ± 0.02 % ID
same,% ID Muscle,[3]; 240 min post-injection,0.22 ± 0.31 % ID
same,% ID Urine,[3]; 240 min post-injection,8.55 ± 2.76 % ID
same,Clot/Blood,[4],4.1
same,Clot/Heart,[4],8.1
same,Clot/Liver,[4],0.40
same,Clot/Lung,[4],4.4
same,% ID/g (clot uptake),[4],0.17 ± 0.09 % ID/g
same,Relative conc (cpm/g of clot by dose/g animal),[4],0.59 ± 0.31
"CC(=NO)C(C)(C)NCCN(CCNC(=O)c1ccc(S(=O)(=O)NCCCCCN)cc1)CCNC(C)(C)C(C)=NO [Compound 16, 3,3,11,11-tetramethyl-7-(4-N-(5-aminopentyl)-amidosulphonyl)benzamidoethyl-4,7,10-triazatridecane-2,12-dione dioxime]",% specific DMC casein uptake,Factor XIIIa,1%
same,% retained in plasma clot assay (no thrombin),human plasma clots [1],0.8%
same,% specific uptake*,human plasma clots [2],1.2%
same,% retained in plasma clot assay (with thrombin),human plasma clots [2],2%
same,% ID Blood,[3]; 2 min post-injection,17.8 ± 1.78 % ID
same,% ID GI Tract,[3]; 2 min post-injection,6.61 ± 0.43 % ID
same,% ID Heart,[3]; 2 min post-injection,0.44 ± 0.09 % ID
same,% ID Kidney,[3]; 2 min post-injection,10.55 ± 1.1 % ID
same,% ID Liver,[3]; 2 min post-injection,5.61 ± 0.23 % ID
same,% ID Lung,[3]; 2 min post-injection,1.53 ± 0.12 % ID
same,% ID Muscle,[3]; 2 min post-injection,32.9 ± 0.97 % ID
same,% ID Urine,[3]; 2 min post-injection,1.74 ± 1.05 % ID
same,% ID Blood,[3]; 30 min post-injection,2.20 ± 0.5 % ID
same,% ID GI Tract,[3]; 30 min post-injection,27.3 ± 3.45 % ID
same,% ID Heart,[3]; 30 min post-injection,0.06 ± 0.01 % ID
same,% ID Kidney,[3]; 30 min post-injection,3.47 ± 0.71 % ID
same,% ID Liver,[3]; 30 min post-injection,5.15 ± 0.75 % ID
same,% ID Lung,[3]; 30 min post-injection,0.31 ± 0.08 % ID
same,% ID Muscle,[3]; 30 min post-injection,4.63 ± 0.25 % ID
same,% ID Urine,[3]; 30 min post-injection,48.0 ± 2.22 % ID
same,% ID Blood,[3]; 60 min post-injection,0.38 ± 0.14 % ID
same,% ID GI Tract,[3]; 60 min post-injection,31.6 ± 6.4 % ID
same,% ID Heart,[3]; 60 min post-injection,0.01 ± 0.01 % ID
same,% ID Kidney,[3]; 60 min post-injection,1.80 ± 0.65 % ID
same,% ID Liver,[3]; 60 min post-injection,3.07 ± 0.47 % ID
same,% ID Lung,[3]; 60 min post-injection,0.09 ± 0.03 % ID
same,% ID Muscle,[3]; 60 min post-injection,1.51 ± 0.53 % ID
same,% ID Urine,[3]; 60 min post-injection,58.2 ± 8.87 % ID
same,% ID Blood,[3]; 240 min post-injection,0.04 ± 0.04 % ID
same,% ID GI Tract,[3]; 240 min post-injection,36.5 ± 1.5 % ID
same,% ID Heart,[3]; 240 min post-injection,0.00 % ID
same,% ID Kidney,[3]; 240 min post-injection,1.06 ± 0.06 % ID
same,% ID Liver,[3]; 240 min post-injection,2.01 ± 0.11 % ID
same,% ID Lung,[3]; 240 min post-injection,0.04 ± 0.00 % ID
same,% ID Muscle,[3]; 240 min post-injection,0.55 ± 0.08 % ID
same,% ID Urine,[3]; 240 min post-injection,58.9 ± 1.66 % ID
same,Clot/Blood,[4],1.7
same,Clot/Heart,[4],3.8
same,Clot/Liver,[4],0.37
same,Clot/Lung,[4],2.1
same,% ID/g (clot uptake),[4],0.27 ± 0.06 % ID/g
same,Relative conc (cpm/g of clot by dose/g animal),[4],0.93 ± 0.16

# Source: patent US6897209B2, “Labelled factor XIIIa substrates” (GE Healthcare Limited, priority 1997, dated 2005)
